According to publication PMC8231256, “Influence of N-Methylation and Conformation on Almiramide Anti-Leishmanial Activity” (Molecules, 2021):
Where “and” joins values, the source holds several entries; their conditions need not be identical. Identical values can stand only once. Like-named read-outs stand apart in the source and are kept apart here. Where a SMILES comes first, the peptide text is derived from it. [ ]: non-standard residue; d: D form. The star is where a group is joined. NMeF = CN[C@@H](Cc1ccccc1)C(=O)O; NMeV = CN[C@H](C(=O)O)C(C)C; Hept6ynoyl = C#CCCCCC(=O)*; NMeA = CN[C@@H](C)C(=O)O; NH(CH2)6NH2 = NCCCCCCN*

Key:
[1] = test system: L. infantum (MHOM/MA/67/ITMAP-263) wild-type strain (WT) promastigotes; format: cell-based, Leishmania infantum; settings: for EC50: 72 h; for Selectivity Index: SI = CC50 (LM-1 macrophage)/EC50 Ldi WT
Protocol: (§1) The biological activity of peptides 15–37 was assessed against the L. infantum wild-type stain (WT), as well as mutants resistant to the common anti-leishmanial agents, such as antimony (Sb^III), amphotericin B (AmB) and miltefosine (MF): Sb2000.1, AmB1000.1 and MF200.5. Activity against Leishmania promastigotes was determined by monitoring the replication of parasites after 72 h of incubation at 25 °C in the presence of increasing concentrations of the different peptides […] and reported as EC50 values (Table 2). […] The greatest potencies were observed using analogs against the amphotericin B resistant strain (e.g., AmB1000.1).
(§2) The L. infantum (MHOM/MA/67/ITMAP-263) wild-type stain (WT), as well as the resistant mutants Sb2000.1, AmB1000.1 and MF200.5 [53, 54, 55, 56, 57, 58], resistant to antimony (Sb^III), amphotericin B (AmB) and miltefosine (MF), respectively, were grown in M199 medium at 25 °C supplemented with 10% fetal bovine serum, 5 μg/mL of haemin at pH 7.0 and 2000 μM Sb (Potassium antimonyl tartrate, Sigma-Aldrich), 200 μM of MF (Miltefosine, Cayman Chem., Ann Arbor, MI, USA) or 1 μM AmB (Amphotericin B solution, Sigma, Oakville, ON, Canada). Antileishmanial values were determined in Leishmania promastigotes by monitoring the replication of parasites after 72 h of incubation at 25 °C in the presence of increasing concentrations of the different peptides by measuring A600 using a Cytation 5 machine (BioTek, Winooski, VT, USA). EC50 values were calculated based on dose–response curves analyzed by non-linear regression with GraphPad Prism 8.4.3 software (GraphPad Software, La Jolla, CA, USA). An average of at least three independent biological replicates from independent cultures was performed for each determination.

[2] = test system: L. infantum AmB1000.1 (resistant to amphotericin B) promastigotes; format: cell-based, Leishmania infantum; settings: for EC50: strain resistant to 1 µM amphotericin B, promastigotes, 72 h, 25 °C, 95% CI in brackets (n = 3), read-out: Ldi AmB-Res EC50
Protocol: as §1, §2

[3] = test system: L. infantum MF200.5 (resistant to miltefosine) promastigotes; format: cell-based, Leishmania infantum; settings: strain resistant to 200 µM miltefosine; promastigotes, 72 h, 25 °C; 95% CI in brackets (n = 3); read-out: Ldi MF-Res EC50
Protocol: as §1, §2

[4] = test system: L. infantum Sb2000.1 (resistant to antimony) promastigotes; format: cell-based, Leishmania infantum; settings: strain resistant to 2 mM antimonials, 72 h, 25 °C, 95% CI in brackets (n = 3), read-out: Ldi Sb-Res EC50
Protocol: as §1, §2

[5] = LM-1 macrophage cytotoxicity (Alamar Blue); format: cell-based, murine; settings: for CC50 at 24 h: mouse
Protocol: The host cytotoxicity was evaluated by monitoring the survival rates of murine LM-1 macrophage at different concentrations of peptides 15–37 ([…]) over 24 h. […] Exceptionally, MeAla peptide amide 21 was 3.2- to 8-fold less toxic than the other peptide analogs.
The LM1- macrophages were grown in DMEM supplemented with 10% heat inactivated FBS. Cells at the concentration of 100,000 cells/mL were cultivated for 24 h in a 96-well plate (37 °C, 5% CO2). The culture medium was removed and fresh medium containing the appropriate drug and concentration was added to the cells, which were incubated for 24 h (37 °C, 5% CO2). Seven different concentrations were tested ([…]) as well as controls (without drugs). After 24 h, the culture medium was removed and replaced for fresh medium containing 10% Alamar Blue (Thermo Fisher Scientific, Waltham, MA, USA) and incubated for 2 h (37 °C, 5% CO2). Readings at 570 and 600 nm (Asys UVM340 Plate reader, Biochrom, Cambridge, UK) were taken and analyzed according to the manufacturer protocol. Survival rates at different drug concentrations and CC50 values were calculated using the Excel software.

[6] = MHOM/MA/67/ITMAP-263) wild-type strain (WT) promastigotes
[7] = promastigotes, 25 °C, 95% confidence interval in brackets (n = 3), read-out: Ldi WT EC50
[8] = LM-1 macrophages, 24 h, Alamar Blue, read-out: CC50

Compound	EC50 [1, 6]	Selectivity Index [1]	EC50 [2]	EC50 [3]	EC50 [4]	CC50 [5]	CC50 at 24 h [5]	EC50 [1, 7]	CC50 at 24 h [5, 8]	fold more active than nonmethylated counterpart ([2]; AmB1000.1, 17 vs 16, 35 vs 31)	therapeutic index ([2]; macrophage toxicity compared with potency against the AmB resistant Leishmania strain)
C#CCCCCC(=O)N[C@H](C(=O)N[C@H](C(=O)N[C@H](C(=O)N[C@H]1CCN([C@H](Cc2ccccc2)C(=O)NCCCCCCN)C1=O)C(C)C)C(C)C)C(C)C [R-32, HCC(CH2)4CO-Val-Val-Val-Agl-D-Phe-NH(CH2)6NH2]	92.6 µM	3.6	118 µM	123 µM	111 µM	338 µM	–	–	–	–	–
C#CCCCCC(=O)N[C@H](C(=O)N(C)[C@H](C(=O)N[C@H](C(=O)N[C@@H](C)C(=O)N[C@@H](Cc1ccccc1)C(=O)NCCCCCCN)C(C)C)C(C)C)C(C)C [compound 19, HCC(CH2)4CO-Val-Val(Me)-Val-Ala-Phe-NH(CH2)6NH2] (Hept6ynoyl-V[NMeV]VAF-{NH(CH2)6NH2})	81.2 µM	3.9	70.3 µM	89.2 µM	78.9 µM	–	316 µM	–	–	–	–
C#CCCCCC(=O)N(C)[C@H](C(=O)N(C)[C@H](C(=O)N(C)[C@H](C(=O)N(C)[C@@H](C)C(=O)N(C)[C@@H](Cc1ccccc1)C(=O)O)C(C)C)C(C)C)C(C)C [peptide 12, HCC(CH2)4CO-Val(Me)-Val(Me)-Val(Me)-Ala(Me)-Phe(Me)-OH] (Hept6ynoyl-[NMeV][NMeV][NMeV][NMeA][NMeF]-OH)	–	4.1	79.6 µM	75.6 µM	70.7 µM	–	–	68.3 µM	281 µM	–	–
C#CCCCCC(=O)N[C@H](C(=O)N[C@H](C(=O)N[C@H](C(=O)N[C@@H](C)C(=O)N[C@@H](Cc1ccccc1)C(=O)O)C(C)C)C(C)C)C(C)C [peptide 15, HCC(CH2)4CO-Val-Val-Val-Ala-Phe-OH] (Hept6ynoyl-VVVAF-OH)	44.7 µM	7.0	46.4 µM	50.8 µM	60.3 µM	–	316 µM	–	–	–	–
C#CCCCCC(=O)N[C@H](C(=O)N[C@H](C(=O)N[C@H](C(=O)N[C@@H](C)C(=O)N[C@@H](Cc1ccccc1)C(=O)NCCCCCCN)C(C)C)C(C)C)C(C)C [peptide 16, HCC(CH2)4CO-Val-Val-Val-Ala-Phe-NH(CH2)6NH2] (Hept6ynoyl-VVVAF-{NH(CH2)6NH2})	23.4 µM	19.2 and 19.0	20.8 µM	18.1 µM	30.3 µM	–	446 µM	–	–	–	–
C#CCCCCC(=O)N(C)[C@H](C(=O)N(C)[C@H](C(=O)N(C)[C@H](C(=O)N(C)[C@@H](C)C(=O)N(C)[C@@H](Cc1ccccc1)C(=O)NCCCCCCN)C(C)C)C(C)C)C(C)C [peptide 17, HCC(CH2)4CO-Val(Me)-Val(Me)-Val(Me)-Ala(Me)-Phe(Me)-NH(CH2)6NH2] (Hept6ynoyl-[NMeV][NMeV][NMeV][NMeA][NMeF]-{NH(CH2)6NH2})	–	6.9	5.6 µM	25.5 µM	60.2 µM	–	–	48.4 µM	338 µM	4 fold	–
C#CCCCCC(=O)N(C)[C@H](C(=O)N[C@H](C(=O)N[C@H](C(=O)N[C@@H](C)C(=O)N[C@@H](Cc1ccccc1)C(=O)NCCCCCCN)C(C)C)C(C)C)C(C)C [peptide 18, HCC(CH2)4CO-Val(Me)-Val-Val-Ala-Phe-NH(CH2)6NH2] (Hept6ynoyl-[NMeV]VVAF-{NH(CH2)6NH2})	36.7 µM	4.8	5.03 µM	12.1 µM	39.6 µM	–	177 µM	–	–	–	36
C#CCCCCC(=O)N[C@H](C(=O)N[C@H](C(=O)N(C)[C@H](C(=O)N[C@@H](C)C(=O)N[C@@H](Cc1ccccc1)C(=O)NCCCCCCN)C(C)C)C(C)C)C(C)C [peptide 20, HCC(CH2)4CO-Val-Val-Val(Me)-Ala-Phe-NH(CH2)6NH2] (Hept6ynoyl-VV[NMeV]AF-{NH(CH2)6NH2})	53.9 µM	5.2	57.2 µM	60.6 µM	40.2 µM	–	281 µM	–	–	–	–
C#CCCCCC(=O)N[C@H](C(=O)N[C@H](C(=O)N[C@H](C(=O)N(C)[C@@H](C)C(=O)N[C@@H](Cc1ccccc1)C(=O)NCCCCCCN)C(C)C)C(C)C)C(C)C [peptide 21, HCC(CH2)4CO-Val-Val-Val-Ala(Me)-Phe-NH(CH2)6NH2] (Hept6ynoyl-VVV[NMeA]F-{NH(CH2)6NH2})	75.8 µM	19.1 and 18.9	65.7 µM	63.5 µM	79.8 µM	–	1440 µM	–	–	–	–
C#CCCCCC(=O)N[C@H](C(=O)N[C@H](C(=O)N[C@H](C(=O)N[C@@H](C)C(=O)N(C)[C@@H](Cc1ccccc1)C(=O)NCCCCCCN)C(C)C)C(C)C)C(C)C [peptide 22, HCC(CH2)4CO-Val-Val-Val-Ala-Phe(Me)-NH(CH2)6NH2] (Hept6ynoyl-VVVA[NMeF]-{NH(CH2)6NH2})	29 µM	15.3	25.9 µM	27.8 µM	25 µM	–	446 µM	–	–	–	–
C#CCCCCC(=O)N[C@H]1CCN([C@H](C(=O)N[C@H](C(=O)N[C@@H](C)C(=O)N[C@@H](Cc2ccccc2)C(=O)O)C(C)C)C(C)C)C1=O [peptide 23, HCC(CH2)4CO-Agl-Val-Val-Ala-Phe-OH]	225 µM	1.61	212 µM	232 µM	241 µM	–	363 µM	–	–	–	–
C#CCCCCC(=O)N[C@H](C(=O)N[C@H]1CCN([C@H](C(=O)N[C@@H](C)C(=O)N[C@@H](Cc2ccccc2)C(=O)O)C(C)C)C1=O)C(C)C [peptide 24, HCC(CH2)4CO-Val-Agl-Val-Ala-Phe-OH]	248 µM	1.6	261 µM	238 µM	251 µM	–	398 µM	–	–	–	–
C#CCCCCC(=O)N[C@H](C(=O)N[C@H](C(=O)N[C@H]1CCN([C@@H](C)C(=O)N[C@@H](Cc2ccccc2)C(=O)O)C1=O)C(C)C)C(C)C [peptide 25, HCC(CH2)4CO-Val-Val-Agl-Ala-Phe-OH]	–	–	> 300 µM	> 300 µM	> 300 µM	–	416 µM	> 300 µM	–	–	–
C#CCCCCC(=O)N(C)[C@H]1CCN([C@H](C(=O)N(C)[C@H](C(=O)N(C)[C@@H](C)C(=O)N(C)[C@@H](Cc2ccccc2)C(=O)O)C(C)C)C(C)C)C1=O [peptide 26, HCC(CH2)4CO-Agl(Me)-Val-Val(Me)-Ala-Phe(Me)-OH]	217 µM	1.46	252 µM	224 µM	220 µM	–	316 µM	–	–	–	–
C#CCCCCC(=O)N(C)[C@H](C(=O)N(C)[C@H]1CCN([C@H](C(=O)N(C)[C@@H](C)C(=O)N(C)[C@@H](Cc2ccccc2)C(=O)NCCCCCCN)C(C)C)C1=O)C(C)C [peptide 34, HCC(CH2)4CO-Val(Me)-Agl(Me)-Val-Ala(Me)-Phe(Me)-NH(CH2)6NH2]	33.2 µM	12.0	24.8 µM	23.1 µM	–	–	398 µM	–	–	–	–
